Test results taken from publication PMC10085697 (2023).

How the values were obtained:
[1] = system: Mango II (RNA, aptamer) GCACGUACGAAGGAGAGGAGAGGAAGAGGAGAGUACGUGC; assay: absorbance shift and fluorescence light-up; details: 140 mM KCl; 10 mM Tris-HCl pH 7.5, 5 μM dye, 5 μM RNA
[2] = system: Mango IV (RNA, aptamer) GCACGUACCGAGGGAGUGGUGAGGAUGAGGCGAGUACGUGC; assay: absorbance shift and fluorescence light-up; details: 140 mM KCl; 10 mM Tris-HCl pH 7.5, 5 μM dye, 5 μM RNA
[3] = system: Control G4 RNA (utr-z) (RNA, G4) GGCGGCGGCAGUGGCGGCGG; assay: fluorescence light-up; details: 140 mM KCl; 10 mM Tris-HCl pH 7.5, 5 μM dye, 5 μM RNA
[4] = system: ds_Mango II (RNA, aptamer) GGUGUGGGGCACGUACGAAGGAGAGGAGAGGAAGAGGAGAGUACGUGCCCCACA; assay: fluorescence light-up; details: 140 mM KCl
[5] = system: Broccoli (RNA, aptamer) GGGAGACGGUCGGGUCCAGAUAUUCGUAUCUGUCGAGUAGAGUGUGGGCUC; assay: fluorescence titration; details: affinity called insignificant compared to that of Mango II; highest concentration not stated
[6] = system: Mango II (RNA, aptamer) GCACGUACGAAGGAGAGGAGAGGAAGAGGAGAGUACGUGC; assay: fluorescence light-up titration (Monolith NT.115); details: 140 mM KCl; 10 mM Tris-HCl pH 7.5, 0.05% Tween-20, 25 °C, 10 nM dye; rough evaluation
[7] = system: Mango IV (RNA, aptamer) GCACGUACCGAGGGAGUGGUGAGGAUGAGGCGAGUACGUGC; assay: fluorescence light-up titration (Monolith NT.115); details: 140 mM KCl; 10 mM Tris-HCl pH 7.5, 0.05% Tween-20, 25 °C, 10 nM dye; rough evaluation
[8] = system: Broccoli (RNA, aptamer) GGGAGACGGUCGGGUCCAGAUAUUCGUAUCUGUCGAGUAGAGUGUGGGCUC; assay: absorbance and fluorescence titration; details: 140 mM KCl; 10 mM Tris-HCl pH 7.5

SMILES	binding [1]	binding [2]	binding [3]	other results
O=C(CCCC[C@@H]1SC[C@@H]2NC(=O)N[C@@H]21)NCCOCCOCCOCCn1cc(C[n+]2c(/C=C/c3cc4c5c(c3)CCCN5CCC4)sc3ccccc32)nn1	yes	yes	–	–
CN1C=CC(=Cc2sc3ccccc3[n+]2Cc2cn(CCOCCOCCOCCNC(=O)CCCC[C@@H]3SC[C@@H]4NC(=O)N[C@@H]43)nn2)c2ccccc21	yes	yes	yes	–
CN1C=CC(=Cc2sc3ccccc3[n+]2CC(=O)NCCOCCOCCOCCNC(=O)CCCC[C@@H]2SC[C@@H]3NC(=O)N[C@@H]32)c2ccccc21	yes	yes	yes	binding ([4]; buffer stated for 4b only): yes
CN(C)c1ccc(/C=C/c2sc3ccccc3[n+]2Cc2cn(CCOCCOCCOCCNC(=O)CCCC[C@@H]3SC[C@@H]4NC(=O)N[C@@H]43)nn2)cc1	–	–	weak	binding ([4]; 20 mM sodium phosphate pH 7.2, 0.05% Tween-20, 1 μM): yes; binding [5]: no; KD [6]: 80 ± 60 nM; KD [7]: 0.6 ± 0.4 µM
CC1=CC(C)(C)N(C)c2ccc(/C=C/c3sc4ccccc4[n+]3Cc3cn(CCOCCOCCOCCNC(=O)CCCC[C@@H]4SC[C@@H]5NC(=O)N[C@@H]54)nn3)cc21	yes	yes	–	–
CC1=N/C(=C\c2cc(F)c(O)c(F)c2)C(=O)N1C	–	–	–	binding [8]: yes
